Test results reported in US20260008862A1, “Bispecific Anti-BCMA x Anti-CD3 Antibodies and Uses Thereof” (Regeneron Pharmaceuticals, Inc., priority 2018, published 2026).
pEC50: −log10 of the molar value. Read-outs that look alike come from different tables or passages of the source.

Assays:
[1] = system: primary multiple myeloma blast cells; test: FACS cytotoxicity assay, autologous T cell-mediated killing of primary multiple myeloma blast cells; assay type: cell-based, human; settings: for pEC50: read-out: MM Lysis EC50
Protocol: In order to monitor the specific killing of multiple myeloma cells by flow cytometry, bone marrow mononuclear cells (BMMC) from multiple myeloma patients were plated on human stromal cells (HS5) and rested overnight at 37 C. Separately, matching patient peripheral blood mononuclear cells (PBMC) were thawed and cultured in supplemented RPMI media at 1×10^6 cells/mL overnight at 37° C. in order to enrich for lymphocytes by depleting adherent cells. The next day, BMMC were co-incubated with adherent cell-depleted naïve PBMC on stromal cells (HS5) and a serial […] dilution of BCMA×CD3 bispecific or 1-arm CD3 isotype control (starting concentration 66.7 nM) at 37° C. Cells were removed from cell culture plates at day 3, 4 or 7 and analyzed by FACS. For the assessment of specificity of killing, multiple myeloma cells were gated as single, live, CD90 negative (to exclude stromal cells), CD2 negative, CD56 positive. CD45 was low on multiple myeloma cells in most samples except MM455. Percent of live target cells was reported for the calculation of adjusted survival as follows: Adjusted survival=(R1/R2)*100, where R1=% live target cells in the presence of antibody, and R2=% live target cells in the absence of test antibody.
T cells were gated as CD2 positive, CD56 negative and either CD4 or CD8 positive. T cell activation was reported as the percent of CD25+CD4 or CD8 T cells out of total CD4 or CD8 T cells.

[2] = system: Jurkat/NFATLuc.3C7 cells + Daudi cells; test: Jurkat/NFATLuc reporter bioassay with Daudi cells; assay type: cell-based; settings: highest RLU / lowest RLU
Protocol: Activity of the anti-BCMA×anti-CD3 bispecific antibodies were assessed in a Jurkat/NFATLuc reporter bioassay utilizing several cell lines with varying levels of BCMA surface expression. The Jurkat cells were engineered to express an NFAT-luciferase reporter (Jurkat/NFATLuc.3C7), and 50,000 Jurkat reporter cells were combined with 50,000 BCMA positive (Daudi, MM1-S, NCI-H929, OPM-2, RPMI-8226, MOLP-8, or Raji) or BCMA negative (HEK293) cells in Thermo Nunclon delta 96 well white microwell plates (Thermo Scientific, Cat #136102) in 50 ul of assay media (RPMI media with 10% FBS and 1% P/S/G). Three-fold serial dilutions of the BCMA×CD3 bispecific antibodies (mAb25441 D or mAb25442D), or a bivalent anti-BCMA antibody (mAb21581) were immediately added in 50 μL of assay buffer. The plates were gently agitated and incubated in a 37° C., 5% CO2 incubator for 4-6 hours. NFAT-Luciferase activity was determined using Promega One-Glo (Cat #E6130) and a Perkin Elmer Envision plate reader. RLU were plotted in GraphPad Prism using a four-parameter logistic equation over a 12-point response curve to calculate EC50 values. […] The signal to noise (S:N) is determined by taking the ratio of the highest RLU on the curve to the lowest.

[3] = system: BCMA-expressing NCI-H929 tumors; test: NCI-H929 + PBMC xenogenic tumor model, immediate treatment, 4 mg/kg (Example 10); assay type: in vivo, mouse
Protocol: To determine the in vivo efficacy of BCMA×CD3 bispecific antibodies (Abs), a xenogenic tumor study was performed. Immunodeficient NOD.Cg-Prkdc^scidIl2rg^tm1Wji/SzJ (NSG) mice were subcutaneously implanted with a mixture of 10×10^6 BCMA-expressing NCI-H929 multiple myeloma cells and 0.5×10^6 human peripheral blood mononuclear cells (PBMC) isolated from a normal donor. […] The mice were administered Abs twice per week for a total of three weeks, and tumor growth was assessed over 40 days. While BCMA^+ tumors grew similarly in the vehicle-, isotype control-, and CD3-binding control-treated mice, both BCMA×CD3 Abs that were tested prevented the growth of tumors in vivo.
Implantation and measurement of syngeneic tumors: NSG mice were subcutaneously implanted with a mixture of 10×10^6 BCMA-expressing NCI-H929 multiple myeloma cells and 0.5×10^6 PBMC derived from a normal donor. […] The mice were administered Abs twice per week for a total of three weeks. Tumor growth was measured with calipers twice per week for the duration of the experiment. Mice were sacrificed 40 days after tumor implantation.
Calculation of syngeneic tumor growth and inhibition: In order to determine tumor volume by external caliper, the greatest longitudinal diameter (length in mm) and the greatest transverse diameter (width in mm) were determined. Tumor volumes based on caliper measurements were calculated by the formula: Volume (mm^3)=(length×width^2)/2.

[4] = sample MM2, newly diagnosed, E:T 1.4, 7 days
[5] = sample MM369, newly diagnosed, E:T 0.3, 3 days
[6] = sample MM453, newly diagnosed, E:T 2.4, 3 days
[7] = sample MM455, progression, treated, E:T 0.4, 3 days

| Substance | pEC50 ([1]; sample MM2, E:T 1.4, 7 days) | % MM lysis at 66 nM [1, 4] [%] | % MM lysis at 66 nM [1, 5] [%] | pEC50 ([1]; sample MM453, E:T 2.4, 3 days) | % MM lysis at 66 nM [1, 6] [%] | pEC50 ([1]; sample MM455, E:T 0.4, 3 days) | % MM lysis at 66 nM [1, 7] [%] | S:N [2] | Average Tumor Size (mm3) ± SEM on Day 4 [3] [mm3] | Average Tumor Size (mm3) ± SEM on Day 7 [3] [mm3] | Average Tumor Size (mm3) ± SEM on Day 11 [3] [mm3] | Average Tumor Size (mm3) ± SEM on Day 14 [3] [mm3] | Average Tumor Size (mm3) ± SEM on Day 18 [3] [mm3] | Average Tumor Size (mm3) ± SEM on Day 21 [3] [mm3] | Average Tumor Size (mm3) ± SEM on Day 28 [3] [mm3] | Average Tumor Size (mm3) ± SEM on Day 40 [3] [mm3] | pEC50 ([1]; sample MM369, E:T 0.3, 3 days) |
| --- | --- | --- | --- | --- | --- | --- | --- | --- | --- | --- | --- | --- | --- | --- | --- | --- | --- |
| REGN5458: anti-BCMA×anti-CD3 bispecific antibody: BCMA HCVR of mAb21581 (SEQ 66), CD3 HCVR of mAb7221G (SEQ 90), common LCVR SEQ 82 | 9.13 | 88 | 96 | 10.00 | 82 | 8.44 | 63 | 43 | 39.5 ± 9.1 | 0 ± 0 | 0 ± 0 | 0 ± 0 | 0 ± 0 | 0 ± 0 | 0 ± 0 | 0 ± 0 |  |
| REGN5459: anti-BCMA×anti-CD3 bispecific antibody: BCMA HCVR of mAb21581 (SEQ 66), CD3 HCVR of mAb7221G20 (SEQ 98), common LCVR SEQ 82 | 8.14 | 85 | 94 | 8.92 | 80 | 7.10 | 52 | 25 | 26.5 ± 6.2 | 0 ± 0 | 0 ± 0 | 0 ± 0 | 0 ± 0 | 0 ± 0 | 0 ± 0 | 0 ± 0 | 9.30 |
